Here are results for 8 molecules from publication PMC5557986 (Scientific Reports, 2017).

The target in test [1] is Clostridium perfringens NanJ NA (CpNA) (Clostridium perfringens, UniProt A0A0H2YT71). It counts as biochemical.
For test [2], the system named is Streptococcus 6646K NA (StrepNA). In kind it is biochemical.
Test [3] has as its target A/RI/5+/1957(H2N2) NA (N2) (Influenza A virus, UniProt Q194T1). Kind of test: biochemical. It counts as biochemical, influenza A/RI/5+/1957(H2N2).
Another test has as its system N2. The settings on record: cited from earlier work.
Another test relates to influenza NA. As to conditions: cited from earlier work.

By IC50 is commonly meant the concentration at which inhibition is half-maximal. Usually Ki stands for a measure of affinity in units of concentration, obtained from inhibition or displacement. Lower therefore signals tighter binding.

Chain of Clostridium perfringens NanJ NA (CpNA) (A0A0H2YT71 27-1173 limits assumed): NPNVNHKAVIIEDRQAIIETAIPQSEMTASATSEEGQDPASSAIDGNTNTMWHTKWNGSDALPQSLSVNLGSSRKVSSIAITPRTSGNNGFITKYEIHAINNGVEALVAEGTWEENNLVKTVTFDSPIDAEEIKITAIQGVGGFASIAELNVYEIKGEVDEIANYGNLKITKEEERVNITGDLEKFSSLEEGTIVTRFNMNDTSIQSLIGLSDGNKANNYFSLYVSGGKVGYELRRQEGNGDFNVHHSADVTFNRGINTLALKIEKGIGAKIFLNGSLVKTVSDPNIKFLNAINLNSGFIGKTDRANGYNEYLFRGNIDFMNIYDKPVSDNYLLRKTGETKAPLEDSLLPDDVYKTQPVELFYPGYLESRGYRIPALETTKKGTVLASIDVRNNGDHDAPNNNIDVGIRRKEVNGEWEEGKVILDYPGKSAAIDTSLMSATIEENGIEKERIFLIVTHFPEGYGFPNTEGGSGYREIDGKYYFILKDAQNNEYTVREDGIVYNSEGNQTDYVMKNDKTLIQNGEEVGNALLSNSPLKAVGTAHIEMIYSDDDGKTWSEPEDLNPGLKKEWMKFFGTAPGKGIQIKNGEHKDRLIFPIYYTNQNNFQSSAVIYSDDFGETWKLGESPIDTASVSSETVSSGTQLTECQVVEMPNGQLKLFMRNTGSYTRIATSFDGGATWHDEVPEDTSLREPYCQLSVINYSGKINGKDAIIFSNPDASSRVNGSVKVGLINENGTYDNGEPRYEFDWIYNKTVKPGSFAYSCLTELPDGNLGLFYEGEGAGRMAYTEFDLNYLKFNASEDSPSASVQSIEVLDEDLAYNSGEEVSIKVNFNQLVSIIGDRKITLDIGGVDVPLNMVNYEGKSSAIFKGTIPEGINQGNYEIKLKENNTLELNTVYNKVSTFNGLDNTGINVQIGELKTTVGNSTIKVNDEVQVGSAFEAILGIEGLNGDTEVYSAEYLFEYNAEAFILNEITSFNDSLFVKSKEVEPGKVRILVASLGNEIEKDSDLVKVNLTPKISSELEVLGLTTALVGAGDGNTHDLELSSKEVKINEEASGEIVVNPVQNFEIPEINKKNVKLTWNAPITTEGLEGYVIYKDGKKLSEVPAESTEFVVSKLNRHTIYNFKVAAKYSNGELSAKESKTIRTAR

Take `CC(=O)N[C@H]1[C@H]([C@H](O)[C@H](O)CO)O[C@H](S(=O)(=O)O)C[C@@H]1O` [7a, 4-Acetamido-1-sulfo-1,2,4-trideoxy-D-glycero-D-galacto-octopyranose]: the “potency for CpNA inhibition relative to eqPO3H” value in test [1] is on record as 8.5 fold. The IC50 in test [1] (read-out: CpNA IC50) turned out to be 37.5 µM; in test [2] it was 3.74 µM; in test [3] it was 8.86 µM. This molecule also had a Ki in test [3] of 2.47 µM. Also, the “potency for inhibition of influenza N2 relative to eqPO3H” value in test [3] stood at 40 fold.

In the case of `CC(=O)N[C@H]1[C@H]([C@H](O)[C@H](O)CO)O[C@@H](S(=O)(=O)O)C[C@@H]1O` [7b, 4-Acetamido-1-sulfo-1,2,4-trideoxy-D-glycero-D-galacto-octopyranose], in test [3], the IC50 was 120 µM and the Ki turned out to be 33.5 µM.

In test [3], `CC(=O)N[C@@H]1C=C[C@H](S(=O)(=O)O)O[C@H]1[C@H](O)[C@H](O)CO` [8b, 4-Acetamido-1-sufo-2,3-didehydro-1,2,3,4-tetradeoxy-D-glycero-D-galacto-octopyranose] came in with an IC50 of 316 µM and a Ki of 88.1 µM.

Take `CC(=O)N[C@H]1[C@H]([C@H](O)[C@H](O)CO)OC(C(=O)O)=C[C@@H]1O` [Neu4Ac2en, 2,3-dehydro-2-deoxy-N-acetylneuraminic acid]: the IC50 with N2 is 19 µM.

As to `[H]/N=C(\N)N[C@H]1C=C(C(=O)O)O[C@@H]([C@H](OC)[C@H](O)CO)[C@@H]1NC(C)=O` [laninamivir], the “inhibition of influenza NA” value in the test with influenza NA is “low nanomolar level”.

For the molecule `CCOC(=O)C1=C[C@@H](OC(CC)CC)[C@H](NC(C)=O)[C@@H](N)C1` [oseltamivir], the “inhibition of influenza NA” value in the test with influenza NA was “low nanomolar level”.

For the molecule `CC(=O)N[C@H]1[C@H]([C@H](O)[C@H](O)CO)OC(C(=O)O)=C[C@@H]1N=C(N)N` [zanamivir], the “inhibition of influenza NA” value in the test on influenza NA is reported as “low nanomolar level”.

peramivir: the “inhibition of influenza NA” value in the test with influenza NA was “low nanomolar level”.
